From paper PMC11110727, “Exploiting thiol-functionalized benzosiloxaboroles for achieving diverse substitution patterns – synthesis, characterization and biological evaluation of promising antibacterial agents” (RSC Medicinal Chemistry, 2024)
Converted amounts (≈) assume the structure as drawn. Where two headings read alike, the source gives them in different places.

Legend:
[1] = system: S. maltophilia ATCC 13637; test: Antibacterial activity: MIC/MBC, MIC with PAβN, disc-diffusion; assay type: cell-based, Stenotrophomonas maltophilia; settings: for MIC: Stenotrophomonas maltophilia, ATCC13637
Procedure, shortened: (§1)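 Read-outs are disc-diffusion zones, broth-microdilution MICs and bactericidal concentrations (MBC), following EUCAST and CLSI guidance. The efflux contribution was probed by rerunning MICs with 20 μg mL^−1 PAβN in MgSO4-supplemented (1 mM) Mueller–Hinton II broth, a ≥4-fold decrease being significant.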

P. mirabilis ATCC 12453 = test: as above; assay type: cell-based, Proteus mirabilis; settings: Proteus mirabilis, ATCC12453
Procedure, shortened: as §1

[2] = system: S. aureus NMI 2541 K MRSA; test: Antibacterial activity against clinical MRSA: MIC/MBC; assay type: cell-based; settings: Staphylococcus aureus
Experimental: Direct antimicrobial activity was determined against the following standard strains: (1) Gram-positive cocci: methicillin-sensitive Staphylococcus aureus ATCC 6538P (MSSA), methicillin-resistant S. aureus subsp. aureus ATCC 43300 (MRSA), S. epidermidis ATCC 12228, Enterococcus faecium ATCC 6057, E. faecalis ATCC 29212, Bacillus subtilis ATCC 6633; (2) Gram-negative bacteria from Enterobacteriales order: Klebsiella pneumoniae ATCC 13883, Escherichia coli ATCC 25922, Enterobacter cloacae DSM 6234, Proteus mirabilis ATCC 12453, Serratia marcescens ATCC 13880; (3) Gram-negative non-fermentative rods: Acinetobacter baumannii ATCC 19606, Pseudomonas aeruginosa ATCC 27853, Stenotrophomonas maltophilia ATCC 12714, S. maltophilia ATCC 13637, Burkholderia cepacia ATCC 25416, Bordetella bronchiseptica ATCC 4617; (4) yeasts: Candida albicans ATCC 90028, C. krusei ATCC 6258, C. parapsilosis ATCC 22019, C. tropicalis (Castellani) Berkhout ATCC 750, C. tropicalis IBA 171, C. guilliermondii IBA 155, and Saccharomyces cerevisiae ATCC 9763. Moreover, 5 clinical strains of methicillin-resistant S. aureus were also included: NMI 664 K, NMI 1576 K, NMI 1712 K, NMI 1991 K, and NMI 2541 K. All strains were stored at −80 °C. Prior to testing, each bacterial strain was subcultured twice on tryptic soy agar TSA (bioMerieux) medium and yeast strains on Sabouraud dextrose agar (bioMerieux) for 24–48 h at 30 °C to ensure viability. The antimicrobial activity was evaluated as previously described[26] by the disc-diffusion method and the MIC determination assays according to the EUCAST (ref. [71] and [72]) and CLSI (ref. [53] and [73]) recommendations. Assessment of bactericidal (MBC) and fungicidal (MFC) activities was performed according to the CLSI recommendations.[54,74] The following reference agents were used: fluconazole (in the case of fungi), linezolid (for Gram-positive bacteria), and nitrofurantoin (for Gram-negative rods). The new benzosiloxaboroles were dissolved in DMSO (Sigma).

[3] = system: Human normal lung fibroblasts MRC-5; test: MTT-based viability (cytotoxicity) assay; settings: for IC50: Homo sapiens, MRC5, 48 h
Procedure, shortened: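 MRC-5 pd30 human lung fibroblasts in supplemented MEME at 37 °C, 5% CO2; viability by MTT, absorbance 570 nm, triplicate, as percent of control cells. Selectivity index taken as IC50/MIC against S. aureus MRSA strains.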

[4] = S. maltophilia ATCC 13637, read-out: MIC
[5] = P. mirabilis ATCC 12453, read-out: MIC
[6] = NMI 2541 K MRSA, read-out: MBC (first MBC where Eagle effect)
[7] = NMI 2541 K MRSA, read-out: second MBC (Eagle effect)

SMILES	MIC [1]	MIC (P. mirabilis ATCC 12453)	MIC ([2]; MRSA)	MBC ([2]; MRSA, read-out: MBC (first MBC where Eagle effect))	MBC ([2]; MRSA, read-out: second MBC (Eagle effect))	viability of MRC-5 ([3]; 6.25 µg·mL−1, 48 h)	viability of MRC-5 ([3]; 12.5 µg·mL−1, 48 h)	viability of MRC-5 ([3]; 25 µg·mL−1, 48 h)	viability of MRC-5 ([3]; 50 µg·mL−1, 48 h)	viability of MRC-5 ([3]; 100 µg·mL−1, 48 h)	viability of MRC-5 ([3]; 200 µg·mL−1, 48 h)	viability of MRC-5 ([3]; 400 µg·mL−1, 48 h)	IC50 [3]	-fold reduction of MIC in the presence of PAβN ([1]; S. maltophilia ATCC 13637, PAβN 20 μg mL^−1, MHB + 1 mM MgSO4)	MIC [1, 4]	MIC (P. mirabilis ATCC 12453; [5])	MBC [2, 6]	MIC ([2]; NMI 2541 K MRSA, read-out: MIC)	MBC [2, 7]
CCOP(=O)(OCC)Sc1c(F)cc2c(c1F)[Si](C)(C)OB2O [Compound 24, S-(5,7-Difluoro-3-hydroxy-1,1-dimethyl-1,3-dihydrobenzo[c][1,2,5]oxasilaborol-6-yl) O,O-diethyl phosphorothioate]	> 400 µg/mL	> 400 µg/mL	12.5 µg/mL (≈ 32.7 µM)	12.5 µg/mL (≈ 32.7 µM)	> 400 µg/mL	95.5±1.4 % of control ± SD	83.9±0.1 % of control ± SD	81.6±2.6 % of control ± SD	78.2±3.0 % of control ± SD	73.0±4.0 % of control ± SD	76.5±3.8 % of control ± SD	60.5±3.8 % of control ± SD	> 400 µg/mL	–	–	–	–	–	–
C[Si]1(C)OB(O)c2cc(F)c(SCCC#N)c(F)c21 [Compound 6, 3-((5,7-Difluoro-3-hydroxy-1,1-dimethyl-1,3-dihydrobenzo[c][1,2,5]oxasilaborol-6-yl)thio)propanenitrile]	–	–	–	–	–	104.0±5.7 % of control ± SD	112.1±1.8 % of control ± SD	104.7±6.7 % of control ± SD	108.3±3.0 % of control ± SD	90.4±0.5 % of control ± SD	43.6±5.1 % of control ± SD	29.5±5.8 % of control ± SD	140 µg/mL (≈ 468 µM)	2 -fold	> 400 µg/mL	> 400 µg/mL	25 µg/mL (≈ 83.6 µM)	12.5 µg/mL (≈ 41.8 µM)	> 400 µg/mL
CC(=O)CSc1ccc2c(c1F)[Si](C)(C)OB2O [Compound 22, 1-((7-Fluoro-3-hydroxy-1,1-dimethyl-1,3-dihydrobenzo[c][1,2,5]oxasilaborol-6-yl)thio)propan-2-one]	–	–	–	–	–	92.1±0.1 % of control ± SD	91.5±2.5 % of control ± SD	85.2±1.1 % of control ± SD	94.4±2.1 % of control ± SD	78.4±4.5 % of control ± SD	69.6±3.7 % of control ± SD	41.4±0.4 % of control ± SD	> 200 µg/mL	–	> 400 µg/mL	> 400 µg/mL	200 µg/mL (≈ 704 µM)	3.12 µg/mL (≈ 11 µM)	–
C[Si]1(C)OB(O)c2cc(F)c(SCCS(=O)(=O)c3ccccc3)c(F)c21 [Compound 20, 5,7-Difluoro-1,1-dimethyl-6-((2-(phenylsulfonyl)ethyl)thio)benzo[c][1,2,5]oxasilaborol-3(1H)-ol]	–	–	–	–	–	101.2±1.7 % of control ± SD	95.3±1.0 % of control ± SD	93.5±2.1 % of control ± SD	84.0±1.5 % of control ± SD	68.5±4.9 % of control ± SD	38.8±4.8 % of control ± SD	3.4±0.9 % of control ± SD	122 µg/mL (≈ 294 µM)	–	> 400 µg/mL	> 400 µg/mL	25 µg/mL (≈ 60.3 µM)	6.25 µg/mL (≈ 15.1 µM)	400 µg/mL (≈ 965 µM)
C[Si]1(C)OB(O)c2ccc(SCC(=O)c3ccccc3)c(F)c21 [Compound 23, 2-((7-Fluoro-3-hydroxy-1,1-dimethyl-1,3-dihydrobenzo[c][1,2,5]oxasilaborol-6-yl)thio)-1-phenylethan-1-one]	–	–	–	–	–	99.3±8.4 % of control ± SD	94.3±0.1 % of control ± SD	83.3±4.4 % of control ± SD	85.9±5.1 % of control ± SD	64.2±3.6 % of control ± SD	32.0±0.3 % of control ± SD	1.0±1.3 % of control ± SD	126 µg/mL (≈ 364 µM)	–	> 400 µg/mL	> 400 µg/mL	6.25 µg/mL (≈ 18 µM)	1.56 µg/mL (≈ 4.51 µM)	200 µg/mL (≈ 578 µM)
